# Test results taken from patent US5348941A, “Stabilizers for fibroblast growth factors” (Merck & Co., Inc., priority 1992, dated 1994).
# pIC50: −log10 of the molar value. Like-named read-outs stand apart in the source and are kept apart here.
# Molecular target: acidic FGF (aFGF) (Homo sapiens, UniProt P05230)
# Assay: biochemical
# Conditions: for IC50 / Approx. Molar Ratio (ligand to aFGF at 50% inhibition of aggregation) / stabilization of aFGF against heat-induced aggregation / number of ligand molecules per aFGF (molar ratio) required for stabilization / IC50: concentration of ligand at which the rate of heat-induced aggregation of aFGF is 50% of the sample without ligand / effect on rate and extent of aggregation of aFGF: 40° C.; for IC50 / IC50: concentration of ligand at which the rate of heat-induced aggregation of aFGF is 50% of the sample without ligand: 100 μg/ml aFGF, PBS pH 7.2; for IC50: read-out: IC50: concentration of ligand at which the rate of heat-induced aggregation of aFGF is 50% of the sample without ligand (converted); for Approx. Molar Ratio (ligand to aFGF at 50% inhibition of aggregation): Table 1; for stabilization of aFGF against heat-induced aggregation: 0.5X and 10X ligand, FIGS. 6-8
# Excerpt: Stabilization of aFGF can be determined by several independent methods including turbidity measurements, spectroscopic techniques, maintenance of protein mass, mitogenic activity and copper catalyzed oxidation. Since acidic fibroblast growth factor is unstable at physiological temperatures (undergoing large structural changes, including aggregation, which results in a loss of mitogenic and wound healing activity), human aFGF stability can be monitored by evaluating the turbidity of the pharmaceutical composition by following the kinetics of temperature induced aggregation of unfolded protein.
# The kinetics of protein aggregation (stabilization) are monitored by the degree of light scattering at about OD350 nm using a Perkin Elmer Lambda 6 UV-visible spectrophotometer equipped with a six-cuvette holder. Temperature is controlled by circulating a water/ethylene glycol solution through the cell holder. About 0.9 ml of a PBS solution (6 mM sodium phosphate, 120 mM NaCl, pH 7.2) was placed into a cuvette and incubated at the appropriate temperature within the spectrophotometer. Once equilibrated, 100 μl of a 1 mg/ml aFGF solution containing the appropriate amount of ligand (stabilizer) is added to the cuvette and mixed manually by inversion. The change in optical density at 350 nm over time is continuously monitored. A dead time of 30s was present due to the mixing of the six samples in each experiment.
# To examine the interactions between aFGF and heparin, a spectrophotometric turbidity assay was developed. This technique monitors the structural stability of aFGF by following the kinetics of temperature induced aggregation of unfolded protein by measurement of the degree of light scattering (turbidity) at 350 nm. The kinetics of protein aggregation were monitored by the degree of light scattering at 350 nm using a Perkin Elmer Lambda 6 UV-visible spectrophotometer equipped with a six-cuvette holder. Temperature was controlled by circulating a water/ethylene glycol solution through the cell holder. A PBS solution, 0.9 ml, (6 mM phosphate, 120 mM NaCl pH 7.2) was placed into a cuvette and incubated at the appropriate temperature within the spectrophotometer. Once equilibrated, 100 μl of a 1 mg/ml aFGF solution containing the appropriate amount of ligand was added to the cuvette and mixed manually by inversion. The change in optical density at 350 nm over time was continuously monitored. A dead time of 30s was present due to the mixing of the six samples in each experiment.
# Samples contained 100 μg/ml aFGF in a PBS buffer at pH 7.2 with the indicated ratio of heparin to aFGF (wt:wt).
# Samples contained 100 μg/ml protein in a PBS buffer, pH 7.2 with (a) no heparin, (b) 1.5 μg/ml, (c) 3 μg/ml, (d) 5 μg/ml, (e) 10 μg/ml and (f) 50 μg/ml heparin. Only representative data points are shown for clarity. […] Using the initial linear portion of the slope of turbidity vs. time plots as a measure of the rate of aggregation, the effect of polyanion concentration can be quantitatively characterized. The Y-axis represents the maximum rate of turbidity formation (ΔOD350 nm/min) normalized to sample (a) containing no heparin. The curve is drawn through data points for clarity only. The IC50 is the concentration of ligand at which the rate of aggregation is 50% of the control sample.
# acidic FGF (aFGF), sequence (P05230 16-155 limits assumed): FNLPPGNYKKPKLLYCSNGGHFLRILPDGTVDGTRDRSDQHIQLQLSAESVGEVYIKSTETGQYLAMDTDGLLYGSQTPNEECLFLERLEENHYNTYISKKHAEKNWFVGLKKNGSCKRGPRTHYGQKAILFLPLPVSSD
Compound,IC50 [µM],Approx. Molar Ratio (ligand to aFGF at 50% inhibition of aggregation),stabilization of aFGF against heat-induced aggregation,also measured
Nc1ncnc2c1ncn2[C@@H]1O[C@H](COP(=O)(O)OP(=O)(O)O)[C@@H](O)[C@H]1O [ADP],200,33,–,–
Nc1ncnc2c1ncn2[C@@H]1O[C@H](COP(=O)(O)OP(=O)(O)OP(=O)(O)O)[C@@H](O)[C@H]1O [ATP],–,5,significantly enhance the thermal stability of aFGF,pIC50: 4.52
"N.N.O=S(=O)(O)O [Ammonium sulfate, ammonium sulfate]",–,80,–,number of ligand molecules per aFGF (molar ratio) required for stabilization: about 80; IC50: concentration of ligand at which the rate of heat-induced aggregation of aFGF is 50% of the sample without ligand: 70 µg/mL
Nc1ncnc2c1ncn2[C@@H]1O[C@H](COP(=O)(O)OP(=O)(O)OP(=O)(O)OC[C@H]2O[C@@H](n3cnc4c(N)ncnc43)[C@H](O)[C@@H]2O)[C@@H](O)[C@H]1O [Ap3A],250,42,–,–
Nc1ncnc2c1ncn2[C@@H]1O[C@H](COP(=O)(O)OP(=O)(O)OP(=O)(O)OP(=O)(O)OP(=O)(O)OC[C@H]2O[C@@H](n3cnc4c(N)ncnc43)[C@H](O)[C@@H]2O)[C@@H](O)[C@H]1O [Ap5A],10,1.6,–,–
O=C(O)[C@H](O)[C@@H](O)[C@H](O[C@@H]1O[C@H](CO)[C@H](O)[C@H](O)[C@H]1O)[C@H](O)CO [Lactobionic acid],502,80,–,number of ligand molecules per aFGF (molar ratio) required for stabilization: about 80
Nc1ncnc2nc[nH]c12.O=S(=O)(O)O [adenine sulfate],–,–,actually alestabilize the growth factor,–
Chondroitin Sulfate B,–,–,–,IC50: concentration of ligand at which the rate of heat-induced aggregation of aFGF is 50% of the sample without ligand: 50 µg/mL; effect on rate and extent of aggregation of aFGF (0.5X ligand by weight): only a slight effect; effect on rate and extent of aggregation of aFGF (10X ligand by weight): significantly slows down the rate and extent of aggregation
Fucoidin,–,–,dramatically stabilize aFGF from heat-induced aggregation,IC50: concentration of ligand at which the rate of heat-induced aggregation of aFGF is 50% of the sample without ligand: 6 µg/mL
chondroitin sulfate A,–,–,–,effect on rate and extent of aggregation of aFGF (0.5X ligand by weight): only a slight effect; effect on rate and extent of aggregation of aFGF (10X ligand by weight): significantly slows down the rate and extent of aggregation
chondroitin sulfate C,–,–,–,effect on rate and extent of aggregation of aFGF (0.5X ligand by weight): only a slight effect; effect on rate and extent of aggregation of aFGF (10X ligand by weight): significantly slows down the rate and extent of aggregation
keratan sulfate,–,–,much less effective,–
poly-glutamic acid,–,–,significantly enhance the thermal stability of aFGF,–
polyaspartic acid [poly-Asp],–,–,significantly enhance the thermal stability of aFGF,–
polyvinyl sulfate,–,–,much less effective,–
sulodexide [reference compound],–,–,dramatically stabilize aFGF from heat-induced aggregation,–

# Continued, in another order:
IC50 [µM],Approx. Molar Ratio (ligand to aFGF at 50% inhibition of aggregation),Compound,stabilization of aFGF against heat-induced aggregation,also measured
10,1.6,Nc1ncnc2c1ncn2[C@@H]1O[C@H](COP(=O)(O)OP(=O)(O)OP(=O)(O)OP(=O)(O)O)[C@@H](O)[C@H]1O [AT4P],–,–
30,5,Nc1ncnc2c1ncn2[C@@H]1O[C@H](COP(=O)(O)OP(=O)(O)OP(=O)(O)OP(=O)(O)OC[C@H]2O[C@@H](n3cnc4c(N)ncnc43)[C@H](O)[C@@H]2O)[C@@H](O)[C@H]1O [Ap4A],–,–
3,0.5,Nc1ncnc2c1ncn2[C@@H]1O[C@H](COP(=O)(O)OP(=O)(O)OP(=O)(O)OP(=O)(O)OP(=O)(O)OP(=O)(O)OC[C@H]2O[C@@H](n3cnc4c(N)ncnc43)[C@H](O)[C@@H]2O)[C@@H](O)[C@H]1O [Ap6A],–,–
